# Results as given in a melting point compilation (Tetko et al.; mined from patent text by program, amines drawn as free bases though some values may be those of a salt).
row,SMILES,melting point
1,O=C(COc1cccnc1)c1ccccc1,81 to 82 °C
2,Cc1c(-c2ccc3c(c2)OCO3)[nH]c2ccc(OCc3ccccc3)cc12,142 to 145 °C
3,CCCCCCCCc1ccc(CCC2(NC(=O)OC(C)(C)C)COC(C)(C)OC2)cc1,120 to 124 °C
4,Cc1ccc(NC(=O)N2CCc3cc(S(=O)(=O)N4CC(c5ccccc5)NC4=O)ccc32)cc1 (stereo not given),223 to 224 °C
5,FC(F)(F)Sc1c(-c2ccc(Cl)cc2)[nH]c(Br)c1Br,107 to 113 °C
6,O=C1C(=Cc2ccccc2)CS(=O)CC1=Cc1ccccc1 (stereo not given),155 to 160 °C
7,COC(=O)c1c([N+](=O)[O-])cccc1S(=O)(=O)NC(C)(C)C,89 to 91 °C
8,COc1ccc2[nH]c3c(c2c1[N+](=O)[O-])CCC3O (stereo not given),230 °C
9,COC(=O)c1ccncc1OC,132 to 135 °C
10,Cc1ccnc(SCc2nccc(SCCCSc3ccc4ncc([N+](=O)[O-])n4n3)c2C)n1,136 to 138 °C
11,CN1C(=S)N(c2cc(C(F)(F)F)cc(C(F)(F)F)c2)C(O)C1O (stereo not given),133 to 135 °C
12,CC(=O)c1cc2sc(C)c(N(C)S(=O)(=O)c3cccs3)c2[nH]1,220 °C
13,c1ccc(SCCCSc2nnnn2-c2ccccc2)cc1,57 to 59 °C
14,CC1CN(c2c(Cl)nc3ccc(F)cc3c2C(N)=O)CC(C)N1 (stereo not given),169 to 170 °C
15,NC(=O)Cn1ncc2c1CN=C(c1ccccc1)c1cc(Cl)ccc1-2,218 to 219 °C
16,Cc1nc(-n2ccc(OCCC3CC3)cc2=O)sc1C(=O)NCc1cccnc1,170 to 172 °C
17,O=C1CCC(C(=O)OC(C(=O)c2ccccc2)c2ccccc2)N1 (stereo not given),123 to 131 °C
18,COc1ccc(-c2cc3c(s2)c(=O)c(SC)cn3C)cc1,182 to 184 °C
19,NC(=O)C1CCc2cc(S(=O)(=O)Cl)ccc2O1 (stereo not given),147 to 148 °C
20,CCNCC1CN(c2c(F)cc3c(=O)c(C(=O)O)cn(C4CC4)c3c2F)CC1C (stereo not given),224 to 226 °C
21,Cc1cc(C)cc(-c2nc3ncccc3o2)c1,148 to 152 °C
22,Nc1c2c(nc3ccccc13)-c1ccccc1CCC2,190 to 192 °C

row,SMILES,melting point
1,Oc1cccc2ccc3ccccc3c12,114 to 116 °C
2,CCCOC(Cc1ccc(OCCc2nc(C3CC3)oc2C)c2ccsc12)C(=O)O (stereo not given),61 to 63 °C
3,CN(C)c1ccc(C2(c3ccc(N(C)C)cc3N(C)C)OC(=O)c3ccccc32)c(N(C)C)c1,186 to 188 °C
4,Oc1ccc(C=Cc2ccncc2)cc1,272 to 275 °C
5,COC(=O)[C@@H]1CSCN1S(=O)(=O)c1ccc(Cl)c(COc2cccc3c(-n4ccnc4)cc(C)nc23)c1Cl,60 °C
6,Cc1nc(CC2CCN(c3ccccc3)CC2)nc(C(=O)NCC(=O)O)c1O,141 °C
7,NC1=Nc2cccc3c(=O)[nH]nc(c23)N1,> 300 °C
8,CC(=S)Nc1ccc[nH]1,93 to 94 °C
9,C=CCNc1nc(SC)nc2cc(OC)c(OC)cc12,122 to 124 °C
10,CC(C)CC(=O)O[C@H]1C[C@H](O)C=C2C=C[C@H](C)[C@H](CC[C@@H]3C[C@@H](O)CC(=O)O3)[C@H]21,153 to 155 °C
11,CCOC(=O)CCc1cn(Cc2ccc(OCc3ccccc3)cc2)nc1OCc1ccc(OCc2ccccc2)cc1,98 to 99 °C
12,CCOC(=O)c1ccc(SCCCC2CCN(c3ccc(Cl)nn3)CC2)cc1,96.3 °C
13,CCOC(=O)CNC(=O)c1cc(Cl)ccc1N,108 to 110 °C
14,CCOC(=O)C1=C(C)NC(O)(C(Cl)(Cl)Cl)C(C(=O)OCC)C1c1cccc([N+](=O)[O-])c1 (stereo not given),125 to 126 °C
15,CN(C)CCC(=O)Nc1ccc2[nH]c3ccc(NC(=O)CCN(C)C)cc3c(=O)c2c1,> 320 °C
16,CC(C)CC1N=C(c2ccccc2)OC1=O (stereo not given),53 to 55 °C
17,COc1ccc(-c2nc3cc4c(cc3[nH]2)C(C)(C)CC(=O)N4)cc1,235 to 238 °C
18,COC(=O)Cc1ccc2c(c1)C(OC)=Cc1ccccc1C2,72 to 73 °C
19,CN(C)C(=O)c1ccc(NS(C)(=O)=O)c(Oc2ccc(F)cc2F)c1,165 to 167 °C
20,COc1cc2c(cc1O)CCC1C2CCC2(C)C1CCC21OCCO1 (stereo not given),150 to 151 °C
21,COc1ccc(ON2CN=C(c3ccccc3F)O2)cc1,99.1 °C
22,Oc1ccc(CNCc2cccc(C(F)(F)F)c2)c2cccnc12,127 to 129 °C

row,SMILES,melting point
1,O=C(Nc1cccc(CN2C(=O)[C@H]3CCC[C@H]3Nc3ccccc32)c1)OCc1ccccc1 (relative stereo),179 to 180 °C
2,COC(=O)c1cccc(C(NCC(=O)Nc2c(C(C)C)cccc2C(C)C)c2ccccc2)c1 (stereo not given),131 to 132 °C
3,CCCCCCCCCCCCCC(C)S(=O)(=O)NC(=O)Nc1c(C(C)C)cccc1C(C)C (stereo not given),65 to 75 °C
4,Cc1ccc(S(=O)(=O)NC(=O)C(C)(N)C(C)C)cc1 (stereo not given),262 to 265 °C
5,CCCSc1sc(C(=O)OCC)c2c1-c1[nH]ncc1CC2,161 to 162 °C
6,COC(=O)C1=Cc2cc(-c3ccc(OCCOC(C)C)cc3)ccc2N(C=O)CC1,107 to 108 °C
7,CC(C)(C)C(=O)Oc1cc(C(=O)OCC[Si](C)(C)C)cc2oc(-c3ccccc3)cc(=O)c12,205 °C
8,COc1ccc(CC(C)=O)cc1S(N)(=O)=O,194 to 196 °C
9,Cc1ccc(OC2SCC(O)C(O)C2O)c(-c2ccoc2)n1 (stereo not given),162 °C
10,CCN(C)C(C)CN1CCc2c(c(=O)oc3cc(OC)ccc23)C1 (stereo not given),102 to 104 °C
11,CC(=O)NC(=O)NCC1CC2c3cccc4[nH]c(Br)c(c34)CC2N(C)C1 (stereo not given),210 to 212 °C
12,Cc1nc2ccc(CBr)cc2c(=O)n1COC(=O)C(C)(C)C,144 to 145 °C
13,C=CCN(C)c1nc(-c2cc(OC)c(OC)c(OC)c2)nc2sc(C#N)c(C)c12,162 to 164 °C
14,CC(=O)NC(=Cc1ccccc1)C1=NC(=Cc2ccc(F)cc2)C(=O)O1,172 °C
15,COc1c(C)nc2sc(Cl)cn2c1=O,138 to 141 °C
16,CCC1(C(=O)C(=O)NC(C)(C)C)CC1,37.5 to 39 °C
17,COc1ccc(N2CCN(Cc3n[nH]c4cc(Cl)ccc34)CC2)cc1,182 to 184 °C
18,CCOC(=O)C1=C2NCCN2CCC1,89 °C
19,CCCCCCC(C(=O)N1CCCC1CC(=O)O)n1cnc2cc(-c3ccccc3-c3nn[nH]n3)ccc21 (stereo not given),122 to 125 °C
20,CC(Oc1ccc(Oc2ccc(C(F)(F)F)cc2)cc1)C(N)=O (stereo not given),147 to 149 °C

# The remaining lines, values ahead:
row,melting point,SMILES
1,142 to 148 °C,CCOC(=O)CCCOc1cccc(-c2n[nH]c3c2Cc2ccccc2-3)c1
2,168 to 170 °C,CC(=O)NC[C@H]1CN(c2cc(F)c(N3CCC(n4ncn(C)c4=S)CC3)c(F)c2)C(=O)O1
3,88 to 89 °C,COC(=O)c1coc2ccc(OCc3ccccc3)cc2c1=O
4,177 °C,CCCCCS(=O)(=O)NC(=O)/C=C/c1ccc(OCCOC)cc1NC(=O)c1ccc(Cl)cc1Cl
5,122 to 124 °C,COc1ccc(P(c2cc(C)cc(C(C)(C)C)c2O)c2cc(C)cc(C(C)(C)C)c2O)cc1
6,187 °C,CC1(C)NS(=O)(=O)c2cc([N+](=O)[O-])ccc21
7,165 to 169 °C,COC(=O)c1cc(OCc2c(C)cccc2C)c2nc(C)n(C)c2c1
8,114 to 117 °C,CSc1ccc(CC2CCc3cc(OCCn4ccnc4)ccc3C2=O)cc1 (stereo not given)
9,93 to 95 °C,CCc1cccc(CC(=O)O)c1OCCCc1cn(-c2ncc(C(F)(F)F)cc2Cl)nc1C(C)C
10,194 to 195 °C,Cc1ccc(N(C)S(=O)(=O)c2cccs2)c2[nH]c(-c3ncc(CCl)s3)cc12
11,213 to 215 °C,CN(c1ccc(S(C)(=O)=O)cc1)S(=O)(=O)c1cccc(NC(=O)c2ccc(S(C)(=O)=O)cc2)c1
12,75 to 76 °C,CCCCCCCCn1c(C2=CC(=O)c3ccccc3C2=O)ccc1C1=CC(=O)c2ccccc2C1=O
13,235 to 237 °C,Cc1cc2c(-c3ccccc3)c(C(=O)NCc3cc(C(F)(F)F)cc(C(F)(F)F)c3)n(CC(N)=O)c(=O)c2cc1C
14,119 to 121 °C,CSCC[C@H](N)C(=O)NC(=O)C(CSC(C)=O)Cc1ccccc1 (stereo not given in full)
15,188 to 190 °C,CCOC(=O)C=Cc1cccc(Nc2ccc3nc[nH]c3c2)c1
16,78 to 80 °C,CCCCc1nc(-c2ccc(C(=O)NCCC(C)(C)C)cc2)no1
17,144 to 146 °C,C#CCc1c(C)nc2c(OCc3c(C)cccc3N)cccn12
18,187 to 188 °C,Cc1nc(-c2cccnc2)sc1-c1ccnc(Nc2ccc3c(c2)OCO3)n1

row,melting point,SMILES
1,273 to 276 °C,CC(C)(C(=O)O)n1c(=O)[nH]c2cc3ccccc3cc2c1=O
2,167 to 168 °C,COc1cc(C(C)C)c(Oc2c(N)nc(N)nc2C2COC(C)(C)OC2)cc1I
3,208 to 209 °C,CCn1nc2c(N)nc3ccccc3c2c1CC(C)C
4,90 °C,COc1ccccc1-c1cccc2c1OC(CN)CN2C (stereo not given)
5,60 to 64 °C,CCOC(=O)c1cc2occc2nc1C(=O)OCC
6,91 to 92 °C,O=C(NCCCOc1ccccn1)c1cccs1
7,188 °C,Fc1ccc(-c2cc(C(F)(F)F)n3cnc(-c4cccnc4)c3n2)cc1Cl
8,120 to 122 °C,COC(=O)[C@@H](Cc1c[nH]c2ccccc12)NS(=O)(=O)c1ccc(OC)cc1
9,171 to 173 °C,CC(=O)c1ccc(OCCOc2ccc3ccccc3c2)c(F)c1
10,148 to 150 °C,Cc1cccc(-c2cn(C)cc(-c3cccc(C)c3)c2=O)c1
11,104 to 106 °C,CCN(C1CC(C)(C)Oc2ccc(OCc3ccccc3)cc21)S(C)(=O)=O (stereo not given)
12,158 °C,CCCc1c(OCCCOc2ccc3ccccc3c2)ccc2c1OC(CCC(=O)O)(CCC(=O)O)CC2=O
13,59.5 to 60 °C,Clc1cc(Br)ccc1OCc1ccccc1
14,98 to 99 °C,Cn1c(-c2c(F)cccc2F)nn(-c2ccccc2C(F)(F)F)c1=O
15,304 to 306 °C,O=C1Nc2ccc(Cl)cc2C1c1ncnc2c1cnn2C1CCCC1 (stereo not given)
16,226 to 227 °C,CN1C(=O)S/C(=C\c2cn(-c3ccccc3)nc2OCc2ccccc2)C1=O
17,143 to 145 °C,O=S(=O)(NCCc1cccnc1)c1ccc(Cl)cc1
18,196 to 198 °C,COc1cc(N)c(Cl)cc1C(=O)NCC1CCN(CCCCCNC(=O)c2ccc(Cl)cc2)CC1
